Experimental data taken from US8772316B2, “Substituted 6,7-dialkoxy-3-isoquinolinol derivatives as inhibitors of phosphodiesterase 10 (PDE10A)” (Allergan, Inc., priority 2011, dated 2014).
Counter-ions that a name gives are not always drawn.

Target: PDE10A
Assay: Phosphodiesterase assay (TR-FRET, LANCE cAMP kit)
Format: biochemical
Conditions: PDE10A (BPS Bioscience) 200 pg/well, biotin-cAMP substrate, 60 min at room temperature
Description: The PDE assay is based on the homogenous time-resolved fluorescence resonance energy transfer (TR-FRET) technology (LANCE® from Perkin Elmer). […] When there is PDE activity, resulting in the degradation of the cyclic nucleotide, the complex is not formed and a decrease in signal is observed.
The phosphodiesterase assay was developed using the LANCE® cAMP kit (PerkinElmer). The assay buffer contained HBSS with 5 mM HEPES, 0.1% BSA, and 1.5 mM MgCl2, pH 7.4. PDE10A (BPS Bioscience) was used at 200 pg/well (with a specific activity of 3200 pmole/min/μg with assay conditions: 10 mM Tris-HCl, pH7.4, 10 mM MgCl2, 1 mM MnCl2, 200 μM cAMP, 2.5 kU 5′ nucleotidase, 37° C., 20 min). […] Chemical compounds were dissolved in DMSO (final concentration 2% (v/v)).
In a 384-well plate, 2 μL inhibitor and 3 μL PDE were added to the well, followed by the addition of 5 μl substrate biotinylated cAMP (1:5). After 60 min incubation at room temperature, 10 μL of assay detection mixture was added to the assay plate. After 1 h at room temperature, the signal was measured on EnVision™ (Perkin Elmer).

Structure (SMILES)	IC50
CCCc1nc(O)c(Cc2ccc3oc4ccccc4c3c2)c2cc(OC)c(OC)cc12 [Compound 7, 4-(Dibenzo[b,d]furan-2-ylmethyl)-6,7-dimethoxy-1-propylisoquinolin-3-ol hydrochloride]	0.0005 µM
CCc1nc(O)c(Cc2cccc(-c3ccccc3)c2)c2cc(OC)c(OC)cc12 [Compound 8, 4-([1,1′-Biphenyl]-3-ylmethyl)-1-ethyl-6,7-dimethoxyisoquinolin-3-ol hydrochloride]	6.71 µM
CCc1nc(O)c(Cc2cccc(-c3ccc(OC)cc3)c2)c2cc(OC)c(OC)cc12 [Compound 9, 1-ethyl-6,7-dimethoxy-4-((4′-methoxy-[1,1′-biphenyl]-3-yl)methyl)isoquinolin-3-ol hydrochloride]	10.6 µM
CCc1nc(O)c(Cc2cccc(-c3cccc(N)c3)c2)c2cc(OC)c(OC)cc12 [Compound 10, 4-((3′-amino-[1,1′-biphenyl]-3-yl)methyl)-1-ethyl-6,7-dimethoxyisoquinolin-3-ol dihydrochloride]	0.052 µM
COc1cc2c(C)nc(O)c(Cc3cccc(-c4ccccc4)n3)c2cc1OC [Compound 12, 6,7-dimethoxy-1-methyl-4-((6-phenylpyridin-2-yl)methyl)isoquinolin-3-ol dihydrochloride]	0.094 µM
COc1cc2c(C)nc(O)c(Cc3cccc(-c4ccncc4)n3)c2cc1OC [Compound 14, 4-([2,4′-bipyridin]-6-ylmethyl)-6,7-dimethoxy-1-methylisoquinolin-3-ol trihydrochloride]	0.1 µM
COc1ccc(-c2cncc(Cc3c(O)nc(C)c4cc(OC)c(OC)cc34)c2)cc1 [Compound 16, 6,7-dimethoxy-4-((5-(4-methoxyphenyl)pyridin-3-yl)methyl)-1-methylisoquinolin-3-ol dihydrochloride]	0.069 µM
COc1cc2c(C)nc(O)c(Cc3ccc4ccccc4c3)c2cc1OC [Compound 17, 6,7-dimethoxy-1-methyl-4-(naphthalen-2-ylmethyl)isoquinolin-3-ol hydrochloride]	0.014 µM
COc1cc2c(C)nc(OC)c(Cc3ccc4ccccc4c3)c2cc1OC [Compound 18, 3,6,7-trimethoxy-1-methyl-4-(naphthalen-2-ylmethyl)isoquinoline hydrochloride]	1.41 µM
CCCc1nc(O)c(Cc2ccc3ccccc3c2)c2cc(OC)c(OC)cc12 [Compound 20, 6,7-dimethoxy-4-(naphthalen-2-ylmethyl)-1-propylisoquinolin-3-ol hydrochloride]	0.034 µM
COc1cc2c(C)nc(O)c(Cc3ccc4ccccc4n3)c2cc1OC [Compound 23, 6,7-dimethoxy-1-methyl-4-(quinolin-2-ylmethyl)isoquinolin-3-ol dihydrochloride]	0.13 µM
COc1cc2c(C)nc(O)c(Cc3ccc4ncccc4c3)c2cc1OC [Compound 24, 6,7-dimethoxy-1-methyl-4-(quinolin-6-ylmethyl)isoquinolin-3-ol dihydrochloride]	0.086 µM
COc1cc2c(C)nc(O)c(Cc3cnc4ccccc4c3)c2cc1OC [Compound 26, 6,7-Dimethoxy-1-methyl-4-(quinolin-3-ylmethyl)isoquinolin-3-ol dihydrochloride]	0.024 µM
COc1cc2c(C)nc(O)c(Cc3cnc4cccc(OC)c4c3)c2cc1OC [Compound 27, 6,7-Dimethoxy-4-((5-methoxyquinolin-3-yl)methyl)-1-methylisoquinolin-3-ol dihydrochloride]	0.017 µM
CCOc1cccc2ncc(Cc3c(O)nc(C)c4cc(OC)c(OC)cc34)cc12 [Compound 28, 4-((5-Ethoxyquinolin-3-yl)methyl)-6,7-dimethoxy-1-methylisoquinolin-3-ol dihydrochloride]	0.006 µM
CCCc1nc(O)c(Cc2cnc3cc(OC)ccc3c2)c2cc(OC)c(OC)cc12 [Compound 32, 6,7-dimethoxy-4-((7-methoxyquinolin-3-yl)methyl)-1-propylisoquinolin-3-ol dihydrochloride]	0.004 µM
CNc1nc2ccc(C)cc2cc1Cc1c(O)nc(C)c2cc(OC)c(OC)cc12 [Compound 33, 6,7-Dimethoxy-1-methyl-4-((6-methyl-2-(methylamino)quinolin-3-yl)methyl)isoquinolin-3-ol dihydrochloride]	0.013 µM

Structure (SMILES)	IC50
CCCc1nc(O)c(Cc2cc3cc(C)ccc3nc2NC)c2cc(OC)c(OC)cc12 [Compound 34, 6,7-dimethoxy-4-((6-methyl-2-(methylamino)quinolin-3-yl)methyl)-1-propylisoquinolin-3-ol dihydrochloride]	0.0019 µM
CNc1nc2ccc(OC)cc2cc1Cc1c(O)nc(C)c2cc(OC)c(OC)cc12 [Compound 37, 6,7-Dimethoxy-4-((6-methoxy-2-(methylamino)quinolin-3-yl)methyl)-1-methyl-isoquinolin-3-ol dihydrochloride]	0.006 µM
CCc1nc(O)c(Cc2cc3cc(OC)ccc3nc2NC)c2cc(OC)c(OC)cc12 [Compound 39, 1-ethyl-6,7-dimethoxy-4-((6-methoxy-2-(methylamino)quinolin-3-yl)methyl)isoquinolin-3-ol dihydrochloride]	0.0016 µM
CCNc1nc2ccc(OC)cc2cc1Cc1c(O)nc(CC)c2cc(OC)c(OC)cc12 [Compound 40, 1-Ethyl-6,7-dimethoxy-4-((6-methoxy-2-(ethylamino)quinolin-3-yl)methyl)isoquinolin-3-ol dihydrochloride]	0.0004 µM
CCNc1nc2ccc(OCC)cc2cc1Cc1c(O)nc(CC)c2cc(OC)c(OC)cc12 [Compound 41, 4-((6-Ethoxy-2-(ethylamino)quinolin-3-yl)methyl)-1-ethyl-6,7-dimethoxyisoquinolin-3-ol dihydrochloride]	0.005 µM
CCCNc1nc2ccc(OC)cc2cc1Cc1c(O)nc(CC)c2cc(OC)c(OC)cc12 [Compound 42, 1-ethyl-6,7-dimethoxy-4-((6-methoxy-2-(propylamino)quinolin-3-yl)methyl)isoquinolin-3-ol dihydrochloride]	0.0005 µM
CCc1nc(O)c(Cc2cc3cc(OC)ccc3nc2NCc2ccccc2)c2cc(OC)c(OC)cc12 [Compound 44, 4-((2-(Benzylamino)-6-methoxyquinolin-3-yl)methyl)-1-ethyl-6,7-dimethoxyisoquinolin-3-ol dihydrochloride]	0.008 µM
CCNc1nc2ccc(OCC)cc2cc1Cc1c(O)nc(C(C)C)c2cc(OC)c(OC)cc12 [Compound 46, 4-((6-Ethoxy-2-(ethylamino)quinolin-3-yl)methyl)-1-isopropyl-6,7-dimethoxyisoquinolin-3-ol dihydrochloride]	0.029 µM
CCCc1nc(O)c(Cc2cc3cc(OC)ccc3nc2NC(C)C)c2cc(OC)c(OC)cc12 [Compound 53, 4-((2-(Isopropylamino)-6-methoxyquinolin-3-yl)methyl)-6,7-dimethoxy-1-propylisoquinolin-3-ol dihydrochloride]	0.0008 µM
CCCc1nc(O)c(Cc2cc3cc(OC)ccc3nc2NCC(F)(F)F)c2cc(OC)c(OC)cc12 [Compound 54, 6,7-dimethoxy-4-((6-methoxy-2-((2,2,2-trifluoroethyl)amino)quinolin-3-yl)methyl)-1-propylisoquinolin-3-ol dihydrochloride]	0.023 µM
CCCc1nc(O)c(Cc2cc3cc(OC)ccc3nc2NCCNC(C)=O)c2cc(OC)c(OC)cc12 [Compound 55, N-(2-((3-((3-hydroxy-6,7-dimethoxy-1-propylisoquinolin-4-yl)methyl)-6-methoxyquinolin-2-yl)amino)ethyl)acetamide dihydrochloride]	0.0044 µM
CCNc1nc2ccc(OC)cc2cc1Cc1c(OC(C)=O)nc(CNC(C)=O)c2cc(OC)c(OC)cc12 [Compound 56, 1-(Acetamidomethyl)-4-((2-(ethylamino)-6-methoxyquinolin-3-yl)methyl)-6,7-dimethoxyisoquinolin-3-yl acetate]	0.175 µM
CCNc1nc2ccc(OC)cc2cc1Cc1c(O)nc(CNC(C)=O)c2cc(OC)c(OC)cc12 [Compound 57, N-((4-((2-(ethylamino)-6-methoxyquinolin-3-yl)methyl)-3-hydroxy-6,7-dimethoxyisoquinolin-1-yl)methyl)acetamide dihydrochloride]	0.047 µM
CNc1nc2cc(O)c(O)cc2cc1Cc1c(O)nc(C)c2cc(OC)c(OC)cc12 [Compound 59, 3-((3-hydroxy-6,7-dimethoxy-1-methylisoquinolin-4-yl)methyl)-2-(methylamino)quinoline-6,7-diol dihydrochloride]	0.027 µM
CNc1nc2cc3c(cc2cc1Cc1c(O)nc(C)c2cc(OC)c(OC)cc12)OCO3 [Compound 60, 6,7-dimethoxy-1-methyl-4-((6-(methylamino)-[1,3]dioxolo[4,5-g]quinolin-7-yl)methyl)isoquinolin-3-ol dihydrochloride]	0.0027 µM
CCc1nc(O)c(Cc2cc3cc4c(cc3nc2NC)OCO4)c2cc(OC)c(OC)cc12 [Compound 61, 1-ethyl-6,7-dimethoxy-4-((6-(methylamino)-[1,3]-dioxolo[4,5-g]quinolin-7-yl)methyl)isoquinolin-3-ol dihydrochloride]	0.0022 µM
CCCc1nc(O)c(Cc2cc3cc4c(cc3nc2NC)OCO4)c2cc(OC)c(OC)cc12 [Compound 62, 6,7-dimethoxy-4-((6-(methylamino)-[1,3]-dioxolo[4,5-g]quinolin-7-yl)methyl)-1-propylisoquinolin-3-ol dihydrochloride]	0.0011 µM
